Measurements from US10351575B2, “Bicyclic urea, thiourea, guanidine and cyanoguanidine compounds useful for the treatment of pain” (Array BioPharma Inc., priority 2012, dated 2019).

Columns and labels:
BLK_m = BLK_m (Mus musculus (Mouse), UniProt P16277); assay: KinaseProfiler off-target kinase profiling; type: biochemical; conditions: 10 μM, ATP near Km
How it was run: (§1)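 Duplicate single-dose screen (10 μM). ATP concentration approximates Km for the individual kinase. Values = average POC.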

ROCK-I = ROCK-I (Homo sapiens (Human), UniProt Q13464); assay: KinaseProfiler off-target kinase profiling; type: biochemical; conditions: 10 μM, ATP near Km
Chain of ROCK-I (Q13464 whole entry): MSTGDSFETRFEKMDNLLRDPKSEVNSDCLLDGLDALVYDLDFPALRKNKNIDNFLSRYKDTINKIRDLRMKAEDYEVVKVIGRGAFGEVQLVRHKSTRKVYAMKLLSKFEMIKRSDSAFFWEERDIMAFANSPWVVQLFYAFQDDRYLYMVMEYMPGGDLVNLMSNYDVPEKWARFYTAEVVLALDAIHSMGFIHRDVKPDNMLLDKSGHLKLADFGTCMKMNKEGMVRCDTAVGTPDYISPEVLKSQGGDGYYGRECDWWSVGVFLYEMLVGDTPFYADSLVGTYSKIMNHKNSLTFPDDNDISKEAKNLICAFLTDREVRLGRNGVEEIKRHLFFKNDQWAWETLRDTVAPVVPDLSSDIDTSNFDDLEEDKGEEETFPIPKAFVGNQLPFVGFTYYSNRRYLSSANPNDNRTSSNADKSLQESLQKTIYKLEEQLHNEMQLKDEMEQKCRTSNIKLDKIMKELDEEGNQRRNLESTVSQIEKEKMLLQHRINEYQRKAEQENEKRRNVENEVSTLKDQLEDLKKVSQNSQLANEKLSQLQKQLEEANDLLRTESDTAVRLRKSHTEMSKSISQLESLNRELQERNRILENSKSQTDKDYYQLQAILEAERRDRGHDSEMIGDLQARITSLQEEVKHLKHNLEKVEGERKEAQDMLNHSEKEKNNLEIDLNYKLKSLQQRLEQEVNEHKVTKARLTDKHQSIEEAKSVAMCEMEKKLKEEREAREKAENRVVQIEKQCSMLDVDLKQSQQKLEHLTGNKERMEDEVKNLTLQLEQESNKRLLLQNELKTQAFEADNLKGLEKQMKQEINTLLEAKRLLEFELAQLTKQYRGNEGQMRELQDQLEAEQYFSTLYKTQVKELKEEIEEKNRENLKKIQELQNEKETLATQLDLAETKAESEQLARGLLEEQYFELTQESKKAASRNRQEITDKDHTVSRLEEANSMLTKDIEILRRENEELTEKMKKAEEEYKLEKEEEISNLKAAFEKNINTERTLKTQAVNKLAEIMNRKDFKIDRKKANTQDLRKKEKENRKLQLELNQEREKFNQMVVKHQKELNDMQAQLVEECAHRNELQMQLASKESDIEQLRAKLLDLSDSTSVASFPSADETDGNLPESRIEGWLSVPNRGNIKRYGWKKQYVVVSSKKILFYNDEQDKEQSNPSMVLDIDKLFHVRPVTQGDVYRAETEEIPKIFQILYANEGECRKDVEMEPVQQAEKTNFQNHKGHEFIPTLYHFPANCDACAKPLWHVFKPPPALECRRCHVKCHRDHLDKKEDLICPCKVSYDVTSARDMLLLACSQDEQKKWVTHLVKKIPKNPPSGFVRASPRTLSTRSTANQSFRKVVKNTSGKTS
How it was run: as §1

Chain of BLK_m (P16277 whole entry): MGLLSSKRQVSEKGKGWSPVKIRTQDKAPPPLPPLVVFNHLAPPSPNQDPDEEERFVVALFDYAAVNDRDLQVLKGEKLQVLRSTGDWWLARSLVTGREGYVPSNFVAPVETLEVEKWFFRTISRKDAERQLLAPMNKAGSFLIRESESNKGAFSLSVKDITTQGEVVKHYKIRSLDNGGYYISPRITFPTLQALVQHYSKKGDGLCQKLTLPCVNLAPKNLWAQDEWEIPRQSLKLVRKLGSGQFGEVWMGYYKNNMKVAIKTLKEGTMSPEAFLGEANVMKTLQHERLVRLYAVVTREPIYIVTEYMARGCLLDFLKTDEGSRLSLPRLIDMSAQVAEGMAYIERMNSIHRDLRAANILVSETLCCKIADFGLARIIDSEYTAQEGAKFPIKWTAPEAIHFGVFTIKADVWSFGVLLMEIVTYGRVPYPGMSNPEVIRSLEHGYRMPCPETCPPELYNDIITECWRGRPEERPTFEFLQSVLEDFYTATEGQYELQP

| Avg. POC (BLK_m) [POC] | Avg. POC (ROCK-I) [POC] | SMILES |
| --- | --- | --- |
| 126 | 116.5 | Cc1c(-c2cnn(C)c2)nn(-c2ccccc2)c1NC(=O)N[C@H]1CCCc2ccccc21 [Example 2, (S)-1-(1′,4-dimethyl-1-phenyl-1H,1′H-3,4′-bipyrazol-5-yl)-3-(1,2,3,4-tetrahydronaphthalen-1-yl)urea] |
| 112 | 116.5 | Cc1c(-c2cnn(C)c2)nn(-c2ccccc2)c1NC(=O)NC1CCOc2cc(F)ccc21 (centres unmarked) [Example 12, 1-(1′,4-dimethyl-1-phenyl-1H,1′H-[3,4′-bipyrazol]-5-yl)-3-(7-fluorochroman-4-yl)urea] |
| 103.5 | 112 | Cc1c(-c2ccc(=O)n(C)c2)nn(-c2ccccc2)c1NC(=O)NC1CN(CC(F)(F)F)Cc2ccccc21 (centres unmarked) [Example 26, 1-(4-methyl-3-(1-methyl-6-oxo-1,6-dihydropyridin-3-yl)-1-phenyl-1H-pyrazol-5-yl)-3-(2-(2,2,2-trifluoroethyl)-1,2,3,4-tetrahydroisoquinolin-4-yl)urea] |
| 111 | 103 | COCc1ccc2c(c1)C(NC(=O)Nc1c(C)c(-c3cnn(C)c3)nn1-c1ccccc1)COC2 (centres unmarked) [Example 32, 1-(1′,4-dimethyl-1-phenyl-1H,1′H-[3,4′-bipyrazol]-5-yl)-3-(6-(methoxymethyl)isochroman-4-yl)urea] |
